The values below come from ChEMBL document CHEMBL5678818, “Discovery of potent SOS1 inhibitors that block RAS activation via disruption of the RAS-SOS1 interaction” (Proc Natl Acad Sci U S A, 2019).

Experiment [1] has as its target T1, Serine/threonine-protein kinase Nek1 (Homo sapiens) (UniProt Q96PY6).
T1 sequence (whole entry): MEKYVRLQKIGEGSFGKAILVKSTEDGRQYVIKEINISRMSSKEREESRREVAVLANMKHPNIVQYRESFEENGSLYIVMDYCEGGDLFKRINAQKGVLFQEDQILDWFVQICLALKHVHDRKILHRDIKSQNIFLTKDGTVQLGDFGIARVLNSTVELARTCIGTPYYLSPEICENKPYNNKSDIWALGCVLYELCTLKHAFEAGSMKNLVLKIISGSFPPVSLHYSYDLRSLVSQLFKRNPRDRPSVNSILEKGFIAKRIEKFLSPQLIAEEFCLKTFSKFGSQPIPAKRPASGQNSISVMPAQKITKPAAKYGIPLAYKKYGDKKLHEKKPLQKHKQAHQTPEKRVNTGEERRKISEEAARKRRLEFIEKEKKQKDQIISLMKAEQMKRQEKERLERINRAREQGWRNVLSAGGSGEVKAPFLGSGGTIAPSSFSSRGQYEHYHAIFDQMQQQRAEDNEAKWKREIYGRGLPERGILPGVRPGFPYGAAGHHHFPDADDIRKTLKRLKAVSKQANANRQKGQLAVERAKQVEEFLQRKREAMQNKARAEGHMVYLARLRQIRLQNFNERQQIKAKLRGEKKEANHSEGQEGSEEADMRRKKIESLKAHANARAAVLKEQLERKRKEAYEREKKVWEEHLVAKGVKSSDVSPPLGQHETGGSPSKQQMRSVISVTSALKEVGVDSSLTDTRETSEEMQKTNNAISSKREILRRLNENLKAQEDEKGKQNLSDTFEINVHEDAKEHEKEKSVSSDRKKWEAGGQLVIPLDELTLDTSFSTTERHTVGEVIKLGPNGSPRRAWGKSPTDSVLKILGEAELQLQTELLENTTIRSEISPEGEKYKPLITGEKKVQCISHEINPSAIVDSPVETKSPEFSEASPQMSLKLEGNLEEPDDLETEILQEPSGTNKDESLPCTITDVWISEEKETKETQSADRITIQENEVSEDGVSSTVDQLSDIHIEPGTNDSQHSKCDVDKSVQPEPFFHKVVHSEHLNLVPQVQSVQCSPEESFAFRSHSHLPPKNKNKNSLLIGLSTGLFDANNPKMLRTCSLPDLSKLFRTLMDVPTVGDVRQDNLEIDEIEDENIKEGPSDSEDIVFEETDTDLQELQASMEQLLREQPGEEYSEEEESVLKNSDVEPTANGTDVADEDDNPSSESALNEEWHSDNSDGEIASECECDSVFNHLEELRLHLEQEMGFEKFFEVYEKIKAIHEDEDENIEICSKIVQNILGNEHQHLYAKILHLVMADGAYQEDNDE
The experiment is described as follows: Inhibition of NEK1 (unknown origin) assessed as residual activity at 1000 nM by KINOMEscan analysis relative to control.

Experiment [2] deals with Ephrin type-A receptor 7 (Homo sapiens) (UniProt Q15375). The experiment is described as follows: Inhibition of EPHA7 (unknown origin) assessed as residual activity at 1000 nM by KINOMEscan analysis relative to control.
The target in experiment [3] is Mitogen-activated protein kinase 14 (Homo sapiens) (UniProt Q16539). The experiment can be described thus: Inhibition of p38-alpha (unknown origin) assessed as residual activity at 1000 nM by KINOMEscan analysis relative to control.
Experiment [4] has as its system Phosphatidylinositol 4,5-bisphosphate 3-kinase catalytic subunit alpha isoform (Homo sapiens), P42336 [M1043I]. The experiment is described as follows: Inhibition of PIK3CA M1043I mutant (unknown origin) assessed as residual activity at 1000 nM by KINOMEscan analysis relative to control.
Experiment [5] has as its target Cyclin-dependent kinase 11B (Homo sapiens) (UniProt P21127). The experiment can be described thus: Inhibition of CDC2L1 (unknown origin) assessed as residual activity at 1000 nM by KINOMEscan analysis relative to control.
In experiment [6] the target is Misshapen-like kinase 1 (Homo sapiens) (UniProt Q8N4C8). The experiment is described as follows: Inhibition of MINK (unknown origin) assessed as residual activity at 1000 nM by KINOMEscan analysis relative to control.
For experiment [7], the target named is Proto-oncogene tyrosine-protein kinase Src (Homo sapiens) (UniProt P12931). The experiment is described as follows: Inhibition of SRC (unknown origin) assessed as residual activity at 1000 nM by KINOMEscan analysis relative to control.
Experiment [8] concerns the target Dual specificity testis-specific protein kinase 1 (Homo sapiens) (UniProt Q15569). The experiment is described as follows: Inhibition of TESK1 (unknown origin) assessed as residual activity at 1000 nM by KINOMEscan analysis relative to control.
The target in experiment [9] is Transient receptor potential cation channel subfamily M member 6 (Homo sapiens) (UniProt Q9BX84). The experiment can be described thus: Inhibition of TRPM6 (unknown origin) assessed as residual activity at 1000 nM by KINOMEscan analysis relative to control.
For experiment [10], the target named is Mitogen-activated protein kinase kinase kinase 1 (Homo sapiens) (UniProt Q13233). The experiment can be described thus: Inhibition of MAP3K1 (unknown origin) assessed as residual activity at 1000 nM by KINOMEscan analysis relative to control.
In experiment [11] the target is Serine/threonine-protein kinase PAK 3 (Homo sapiens) (UniProt O75914). The experiment is described as follows: Inhibition of PAK3 (unknown origin) assessed as residual activity at 1000 nM by KINOMEscan analysis relative to control.
Experiment [12] addresses Serine/threonine-protein kinase 38 (Homo sapiens) (UniProt Q15208). The experiment is described as follows: Inhibition of NDR1 (unknown origin) assessed as residual activity at 1000 nM by KINOMEscan analysis relative to control.
For experiment [13], the target named is Serine/threonine-protein kinase WNK1 (Homo sapiens) (UniProt Q9H4A3). The experiment is described as follows: Inhibition of WNK1 (unknown origin) assessed as residual activity at 1000 nM by KINOMEscan analysis relative to control.
Experiment [14] deals with Serine/threonine-protein kinase 26 (Homo sapiens) (UniProt Q9P289). The experiment can be described thus: Inhibition of MST4 (unknown origin) assessed as residual activity at 1000 nM by KINOMEscan analysis relative to control.
Experiment [15] addresses cAMP-dependent protein kinase catalytic subunit beta (Homo sapiens) (UniProt P22694). The experiment can be described thus: Inhibition of PKAC-beta (unknown origin) assessed as residual activity at 1000 nM by KINOMEscan analysis relative to control.
Experiment [16] has as its target Casein kinase I isoform delta (Homo sapiens) (UniProt P48730). The experiment can be described thus: Inhibition of CSNK1D (unknown origin) assessed as residual activity at 1000 nM by KINOMEscan analysis relative to control.
Experiment [17] concerns the target Wee1-like protein kinase (Homo sapiens) (UniProt P30291). The experiment is described as follows: Inhibition of WEE1 (unknown origin) assessed as residual activity at 1000 nM by KINOMEscan analysis relative to control.
Experiment [18] deals with Phosphorylase b kinase gamma catalytic chain, skeletal muscle/heart isoform (Homo sapiens) (UniProt Q16816). The experiment is described as follows: Inhibition of PHKG1 (unknown origin) assessed as residual activity at 1000 nM by KINOMEscan analysis relative to control.
Experiment [19] has as its target Calcium/calmodulin-dependent protein kinase type 1G (Homo sapiens) (UniProt Q96NX5). The experiment is described as follows: Inhibition of CAMK1G (unknown origin) assessed as residual activity at 1000 nM by KINOMEscan analysis relative to control.

Casein kinase I isoform delta (Homo sapiens), sequence (P48730 whole entry, looked up, canonical isoform): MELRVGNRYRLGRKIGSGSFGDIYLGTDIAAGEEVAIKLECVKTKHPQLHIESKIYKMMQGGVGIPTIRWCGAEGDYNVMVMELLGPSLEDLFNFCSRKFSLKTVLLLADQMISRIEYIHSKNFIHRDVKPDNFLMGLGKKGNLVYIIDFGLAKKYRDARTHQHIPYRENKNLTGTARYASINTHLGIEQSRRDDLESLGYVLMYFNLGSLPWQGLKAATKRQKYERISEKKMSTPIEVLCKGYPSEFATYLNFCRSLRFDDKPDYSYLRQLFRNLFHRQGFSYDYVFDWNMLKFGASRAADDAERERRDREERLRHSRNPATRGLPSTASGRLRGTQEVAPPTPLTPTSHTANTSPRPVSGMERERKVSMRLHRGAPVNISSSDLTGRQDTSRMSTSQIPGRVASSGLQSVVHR
Mitogen-activated protein kinase kinase kinase 1 (Homo sapiens), sequence (Q13233 whole entry): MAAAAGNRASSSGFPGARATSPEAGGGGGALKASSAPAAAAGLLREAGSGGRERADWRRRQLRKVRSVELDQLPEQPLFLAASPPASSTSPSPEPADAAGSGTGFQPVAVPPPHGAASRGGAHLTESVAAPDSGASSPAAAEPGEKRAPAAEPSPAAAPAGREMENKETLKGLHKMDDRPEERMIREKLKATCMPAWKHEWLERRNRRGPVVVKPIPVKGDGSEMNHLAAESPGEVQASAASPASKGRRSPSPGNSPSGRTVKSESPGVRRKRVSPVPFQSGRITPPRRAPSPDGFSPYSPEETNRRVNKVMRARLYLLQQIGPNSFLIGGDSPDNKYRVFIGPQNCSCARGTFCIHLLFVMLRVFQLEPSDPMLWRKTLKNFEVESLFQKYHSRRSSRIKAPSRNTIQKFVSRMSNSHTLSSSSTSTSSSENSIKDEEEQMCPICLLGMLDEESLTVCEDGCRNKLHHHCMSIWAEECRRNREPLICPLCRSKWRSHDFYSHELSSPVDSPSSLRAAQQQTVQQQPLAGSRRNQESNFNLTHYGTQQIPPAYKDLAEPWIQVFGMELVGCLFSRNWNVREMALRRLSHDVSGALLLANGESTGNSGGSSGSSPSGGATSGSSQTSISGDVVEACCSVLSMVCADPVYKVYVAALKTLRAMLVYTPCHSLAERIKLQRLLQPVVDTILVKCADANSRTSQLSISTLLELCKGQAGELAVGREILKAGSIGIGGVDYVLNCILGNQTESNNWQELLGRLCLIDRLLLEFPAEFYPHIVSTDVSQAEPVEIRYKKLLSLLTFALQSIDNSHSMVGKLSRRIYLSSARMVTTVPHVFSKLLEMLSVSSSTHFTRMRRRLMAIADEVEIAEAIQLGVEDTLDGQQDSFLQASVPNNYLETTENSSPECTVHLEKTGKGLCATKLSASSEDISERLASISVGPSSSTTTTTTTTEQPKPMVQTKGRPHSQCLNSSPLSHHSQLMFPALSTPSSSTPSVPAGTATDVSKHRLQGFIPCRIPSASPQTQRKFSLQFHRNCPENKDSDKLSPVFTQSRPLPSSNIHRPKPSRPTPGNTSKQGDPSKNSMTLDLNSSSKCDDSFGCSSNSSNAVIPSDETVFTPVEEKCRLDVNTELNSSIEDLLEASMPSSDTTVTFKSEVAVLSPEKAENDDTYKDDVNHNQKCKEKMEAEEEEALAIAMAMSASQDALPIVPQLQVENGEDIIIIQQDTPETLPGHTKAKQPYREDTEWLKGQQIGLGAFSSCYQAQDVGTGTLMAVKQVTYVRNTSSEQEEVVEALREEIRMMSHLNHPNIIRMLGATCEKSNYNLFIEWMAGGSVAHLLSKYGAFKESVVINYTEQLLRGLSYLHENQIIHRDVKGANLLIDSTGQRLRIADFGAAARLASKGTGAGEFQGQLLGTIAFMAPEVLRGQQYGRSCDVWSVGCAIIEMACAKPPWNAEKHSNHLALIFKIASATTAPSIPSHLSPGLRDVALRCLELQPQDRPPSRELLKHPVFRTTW
Calcium/calmodulin-dependent protein kinase type 1G (Homo sapiens), sequence (Q96NX5 whole entry): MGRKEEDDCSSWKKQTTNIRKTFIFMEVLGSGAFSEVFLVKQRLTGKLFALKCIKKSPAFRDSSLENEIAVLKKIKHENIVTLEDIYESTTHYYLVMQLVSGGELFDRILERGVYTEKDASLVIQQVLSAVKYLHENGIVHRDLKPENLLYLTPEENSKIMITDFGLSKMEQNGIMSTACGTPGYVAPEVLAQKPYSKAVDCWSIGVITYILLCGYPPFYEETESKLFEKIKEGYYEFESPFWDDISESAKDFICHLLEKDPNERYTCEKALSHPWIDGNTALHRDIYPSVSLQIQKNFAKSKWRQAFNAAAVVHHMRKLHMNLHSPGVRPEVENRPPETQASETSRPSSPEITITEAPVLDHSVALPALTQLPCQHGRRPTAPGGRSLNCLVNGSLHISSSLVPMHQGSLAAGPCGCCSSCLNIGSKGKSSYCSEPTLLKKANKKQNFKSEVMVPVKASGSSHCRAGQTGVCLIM
Serine/threonine-protein kinase 26 (Homo sapiens), sequence (Q9P289 2-416 limits assumed): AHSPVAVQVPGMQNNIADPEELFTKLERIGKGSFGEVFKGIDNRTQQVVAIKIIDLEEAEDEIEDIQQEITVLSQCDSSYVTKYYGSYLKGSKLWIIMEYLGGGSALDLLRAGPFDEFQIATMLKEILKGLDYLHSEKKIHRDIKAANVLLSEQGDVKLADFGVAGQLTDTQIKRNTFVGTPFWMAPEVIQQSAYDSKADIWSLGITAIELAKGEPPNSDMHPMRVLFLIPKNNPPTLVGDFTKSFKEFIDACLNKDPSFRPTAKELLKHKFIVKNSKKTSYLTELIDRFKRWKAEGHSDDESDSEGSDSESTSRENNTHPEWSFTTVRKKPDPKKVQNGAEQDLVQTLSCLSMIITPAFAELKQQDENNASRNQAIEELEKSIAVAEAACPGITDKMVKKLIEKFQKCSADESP
Transient receptor potential cation channel subfamily M member 6 (Homo sapiens), sequence (Q9BX84 whole entry): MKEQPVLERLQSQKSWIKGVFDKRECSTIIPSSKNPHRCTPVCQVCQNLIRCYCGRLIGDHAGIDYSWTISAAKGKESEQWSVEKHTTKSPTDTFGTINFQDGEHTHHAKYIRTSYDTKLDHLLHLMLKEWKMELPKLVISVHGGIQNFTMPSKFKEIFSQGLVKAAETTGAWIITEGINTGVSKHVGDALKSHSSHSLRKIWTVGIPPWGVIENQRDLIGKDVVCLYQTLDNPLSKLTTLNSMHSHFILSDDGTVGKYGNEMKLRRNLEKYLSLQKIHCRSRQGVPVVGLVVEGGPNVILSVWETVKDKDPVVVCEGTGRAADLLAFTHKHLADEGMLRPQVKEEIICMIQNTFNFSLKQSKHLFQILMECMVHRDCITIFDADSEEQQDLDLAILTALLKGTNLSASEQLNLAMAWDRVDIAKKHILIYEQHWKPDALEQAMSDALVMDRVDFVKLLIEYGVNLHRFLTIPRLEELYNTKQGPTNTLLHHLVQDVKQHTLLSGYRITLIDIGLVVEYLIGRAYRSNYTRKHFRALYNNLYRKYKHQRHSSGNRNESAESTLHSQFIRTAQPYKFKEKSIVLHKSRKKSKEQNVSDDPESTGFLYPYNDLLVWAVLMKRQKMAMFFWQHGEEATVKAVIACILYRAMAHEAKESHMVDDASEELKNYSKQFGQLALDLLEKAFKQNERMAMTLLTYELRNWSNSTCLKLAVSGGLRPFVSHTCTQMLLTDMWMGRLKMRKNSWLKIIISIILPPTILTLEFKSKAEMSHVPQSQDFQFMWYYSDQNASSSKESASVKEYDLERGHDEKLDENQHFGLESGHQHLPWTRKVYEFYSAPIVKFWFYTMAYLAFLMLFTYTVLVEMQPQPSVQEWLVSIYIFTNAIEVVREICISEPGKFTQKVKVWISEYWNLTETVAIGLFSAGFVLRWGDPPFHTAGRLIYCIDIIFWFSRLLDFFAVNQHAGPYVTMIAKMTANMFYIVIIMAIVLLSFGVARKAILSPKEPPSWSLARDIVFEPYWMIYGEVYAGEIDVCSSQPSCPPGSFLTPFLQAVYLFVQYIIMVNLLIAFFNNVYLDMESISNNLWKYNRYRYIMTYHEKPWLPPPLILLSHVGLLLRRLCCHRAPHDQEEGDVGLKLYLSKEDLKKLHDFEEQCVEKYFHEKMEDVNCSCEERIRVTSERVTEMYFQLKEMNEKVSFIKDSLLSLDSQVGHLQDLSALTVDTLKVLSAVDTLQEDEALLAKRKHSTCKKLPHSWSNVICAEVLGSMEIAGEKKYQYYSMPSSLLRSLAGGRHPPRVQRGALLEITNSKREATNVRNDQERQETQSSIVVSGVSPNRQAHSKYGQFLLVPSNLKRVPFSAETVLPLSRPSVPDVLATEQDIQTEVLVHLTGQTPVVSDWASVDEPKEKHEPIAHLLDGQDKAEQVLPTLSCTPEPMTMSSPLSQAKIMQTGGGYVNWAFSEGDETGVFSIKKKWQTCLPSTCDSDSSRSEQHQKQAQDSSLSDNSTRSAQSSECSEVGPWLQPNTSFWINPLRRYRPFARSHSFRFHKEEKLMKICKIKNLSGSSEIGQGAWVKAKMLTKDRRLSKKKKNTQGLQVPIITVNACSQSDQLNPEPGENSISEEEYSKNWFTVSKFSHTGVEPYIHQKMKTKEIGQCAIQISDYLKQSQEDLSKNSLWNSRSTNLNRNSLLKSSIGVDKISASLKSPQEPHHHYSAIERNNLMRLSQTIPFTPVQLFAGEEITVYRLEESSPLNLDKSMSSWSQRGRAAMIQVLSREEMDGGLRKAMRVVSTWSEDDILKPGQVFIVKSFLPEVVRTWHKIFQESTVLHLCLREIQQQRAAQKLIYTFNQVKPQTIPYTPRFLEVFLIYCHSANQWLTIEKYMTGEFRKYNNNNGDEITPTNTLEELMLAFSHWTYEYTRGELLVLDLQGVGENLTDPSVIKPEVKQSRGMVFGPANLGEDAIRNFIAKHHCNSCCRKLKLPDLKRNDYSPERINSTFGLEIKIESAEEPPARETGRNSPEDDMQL

Take `COc1cc2nc(C)nc(N[C@H](C)c3cccc(-c4cn[nH]c4)c3)c2cc1OC`: the Activity in [1] came to 100%; in [2], 100%; in experiment [3], 98%; in experiment [4], 100%; in experiment [5], 94%; in [6] it was 100%. For the same compound, the Activity in experiment [7] amounted to 97%; in [8], 100%; in experiment [9], 84%; in experiment [10], 77%; in experiment [11] it was 34%; in experiment [12], 64%. Moreover, the Activity in experiment [13] was 86%; in experiment [14] it was 74%; in [15], 73%; in experiment [16], 100%; in [17], 84%; in [18], 100%. The Activity in experiment [19] amounted to 100%.
Regarding `COc1cc2ncnc(N[C@H](C)c3cccc4ccccc34)c2cc1OC`, the Activity in experiment [1] was 96%; in experiment [2], 88%; in experiment [3], 58%; in [4] it was 92%; in experiment [5], 83%; in experiment [6], 74%. In addition, the Activity in [7] was found to be 96%; in [8] it was 96%; in experiment [9], 100%; in experiment [10] it was 100%; in experiment [11] it was 58%; in experiment [12], 79%. Moreover, the Activity in [13] was found to be 100%; in experiment [14], 98%; in [15], 100%; in experiment [16], 95%; in experiment [17], 100%; in [18], 100%. In [19], the Activity was 98%.
